Source: PMC11110727, “Exploiting thiol-functionalized benzosiloxaboroles for achieving diverse substitution patterns – synthesis, characterization and biological evaluation of promising antibacterial agents” (RSC Medicinal Chemistry, 2024)

Legend:
Gram-negative rods = assay: Antibacterial activity against Gram-negative rods with or without PAβN (text summaries); format: cell-based; conditions: for efflux assay result (MIC with PAβN): Gram-negative rods; for reduction of MIC in the presence of PAβN: Enterobacterales
Description: Direct antimicrobial activity was determined against the following standard strains: (1) Gram-positive cocci: methicillin-sensitive Staphylococcus aureus ATCC 6538P (MSSA), methicillin-resistant S. aureus subsp. aureus ATCC 43300 (MRSA), S. epidermidis ATCC 12228, Enterococcus faecium ATCC 6057, E. faecalis ATCC 29212, Bacillus subtilis ATCC 6633; (2) Gram-negative bacteria from Enterobacteriales order: Klebsiella pneumoniae ATCC 13883, Escherichia coli ATCC 25922, Enterobacter cloacae DSM 6234, Proteus mirabilis ATCC 12453, Serratia marcescens ATCC 13880; (3) Gram-negative non-fermentative rods: Acinetobacter baumannii ATCC 19606, Pseudomonas aeruginosa ATCC 27853, Stenotrophomonas maltophilia ATCC 12714, S. maltophilia ATCC 13637, Burkholderia cepacia ATCC 25416, Bordetella bronchiseptica ATCC 4617; (4) yeasts: Candida albicans ATCC 90028, C. krusei ATCC 6258, C. parapsilosis ATCC 22019, C. tropicalis (Castellani) Berkhout ATCC 750, C. tropicalis IBA 171, C. guilliermondii IBA 155, and Saccharomyces cerevisiae ATCC 9763. Moreover, 5 clinical strains of methicillin-resistant S. aureus were also included: NMI 664 K, NMI 1576 K, NMI 1712 K, NMI 1991 K, and NMI 2541 K. All strains were stored at −80 °C. Prior to testing, each bacterial strain was subcultured twice on tryptic soy agar TSA (bioMerieux) medium and yeast strains on Sabouraud dextrose agar (bioMerieux) for 24–48 h at 30 °C to ensure viability. The antimicrobial activity was evaluated as previously described[26] by the disc-diffusion method and the MIC determination assays according to the EUCAST (ref. [71] and [72]) and CLSI (ref. [53] and [73]) recommendations. Assessment of bactericidal (MBC) and fungicidal (MFC) activities was performed according to the CLSI recommendations.[54,74] […] The new benzosiloxaboroles were dissolved in DMSO (Sigma).
Considering that the MDR efflux pumps often contribute to Gram-negative rod resistance, the MIC values of studied agents, with or without the pump inhibitor, PAβN (20 μg mL^−1) (Sigma), were determined.[75] The MIC was determined using Mueller–Hinton II broth medium (MHB) (Becton Dickinson) by the broth microdilution method, according to the CLSI guideliness.[53] To minimize the influence of PAβN on the destabilization of bacterial cell covers, the tests were conducted in the presence of 1 mM MgSO4 (Sigma).[76] At least a 4-fold reduction in the MIC value after the addition of PAβN was considered significant.[56,77]

S. aureus MRSA LeuRS = target: T1, S. aureus MRSA LeuRS (Staphylococcus aureus, UniProt P67513); assay: In vitro aminoacylation (enzyme inhibition) assay; format: biochemical
T1 construct: The LeuRS gene from MRSA (PW-71) was amplified by PCR; made in house; host or cells: E. coli BL21(DE3)pLys
T1 sequence (P67513 whole entry): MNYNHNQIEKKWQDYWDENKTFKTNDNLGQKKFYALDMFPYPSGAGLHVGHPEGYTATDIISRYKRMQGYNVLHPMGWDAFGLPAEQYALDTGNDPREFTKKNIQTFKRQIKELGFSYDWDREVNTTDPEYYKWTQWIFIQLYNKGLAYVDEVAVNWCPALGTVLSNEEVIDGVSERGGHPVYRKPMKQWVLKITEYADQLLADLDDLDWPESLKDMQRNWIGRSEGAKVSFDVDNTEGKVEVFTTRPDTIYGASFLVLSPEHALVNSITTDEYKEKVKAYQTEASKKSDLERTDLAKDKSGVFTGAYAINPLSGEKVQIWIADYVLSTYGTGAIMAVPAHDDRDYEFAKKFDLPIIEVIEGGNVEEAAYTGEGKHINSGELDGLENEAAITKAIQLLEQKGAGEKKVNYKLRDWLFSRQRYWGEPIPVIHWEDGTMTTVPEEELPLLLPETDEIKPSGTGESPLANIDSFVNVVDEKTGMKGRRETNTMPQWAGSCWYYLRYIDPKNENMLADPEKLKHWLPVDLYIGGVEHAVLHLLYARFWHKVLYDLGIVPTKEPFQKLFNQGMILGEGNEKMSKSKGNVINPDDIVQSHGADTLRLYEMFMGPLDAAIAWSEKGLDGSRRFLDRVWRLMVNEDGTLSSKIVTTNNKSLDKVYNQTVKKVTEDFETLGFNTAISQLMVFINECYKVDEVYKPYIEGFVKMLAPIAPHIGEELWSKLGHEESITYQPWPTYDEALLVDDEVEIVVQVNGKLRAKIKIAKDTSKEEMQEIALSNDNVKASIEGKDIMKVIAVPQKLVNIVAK
Description: We have undertaken research devoted to determining the most probable mechanism of antibacterial action. […] Considering structural similarity to benzoxaboroles we assumed that benzosiloxaboroles are active through this mechanism. Our working hypothesis was supported by the fact that benzosiloxaboroles are rather bacteriostatic than bactericidal,[26,27] which is consistent with the specificity of the OBORT mechanism. The enzyme inhibition assay was performed for compound 20 as it features high activity against S. aureus MRSA strains and the respective favorable SI = 19.5 (Table 5). […] We obtained S. aureus MRSA LeuRS in the E. coli expression system. From 400 mL culture, approximately 20 mg of 6× His tagged LeuRS (with a molecular mass of 92.3 kDa) was purified to more than 90% homogeneity, which was confirmed by sodium dodecylsulfate-polyacrylamide gel electrophoresis (SDS-PAGE; Fig. S2, ESI ^†). Next, we used an in vitro aminoacylation assay to investigate the ability of 20 to inhibit S. aureus MRSA LeuRS activity consistent with affecting the transfer of the ^14C-radiolabeled leucine to a total tRNA. […] (residual activity 30.8% at 25 μM).
The LeuRS gene from MRSA (PW-71) was amplified by PCR using the following primers: 5′-[…]-3′ and 5′-[…]-3′. The amplified leuRS was digested with BamHI and NotI and ligated into pETDuet-1 vector (Novagen) which carries an N-terminal His tag. After sequencing, the pETDuet1-leuRS plasmid was transformed into E. coli BL21(DE3)pLys cells, which were then grown overnight in 20 mL of Luria–Bertani (LB) medium containing 100 μg mL^−1 ampicillin and 30 μg mL^−1 chloramphenicol. Then the overnight culture was inoculated into 400 mL of Super Broth medium containing ampicillin and chloramphenicol at the same concentration, and the cells were grown until the OD600 reached 0.6. […] The protein concentration in the final solution was 2.86 mg mL^−1 (determined by the Bradford method and bovine serum albumin as a standard).[78] […]

Compound | efflux assay result (MIC with PAβN) (Gram-negative rods) | reduction of MIC in the presence of PAβN (Gram-negative rods) | IC50 (S. aureus MRSA LeuRS) [µM] | remaining activity at 25 µM (S. aureus MRSA LeuRS; read-out: residual activity of S. aureus MRSA LeuRS) [%]
COC(=O)CCSc1ccc2c(c1F)[Si](C)(C)OB2O [Compound 4, Methyl 3-((7-fluoro-3-hydroxy-1,1-dimethyl-1,3-dihydrobenzo[c][1,2,5]oxasilaborol-6-yl)thio)propanoate] | actively extruded from bacterial cells | – | – | –
C[Si]1(C)OB(O)c2ccc(SC3CC(=O)NC3=O)c(F)c21 (stereo not shown) [Compound 13, 3-((7-Fluoro-3-hydroxy-1,1-dimethyl-1,3-dihydrobenzo[c][1,2,5]oxasilaborol-6-yl)thio)pyrrolidine-2,5-dione] | – | at least 4 -fold | – | –
C[Si]1(C)OB(O)c2ccc(SCCS(=O)(=O)c3ccccc3)c(F)c21 [Compound 21, 7-Fluoro-1,1-dimethyl-6-((2-(phenylsulfonyl)ethyl)thio)benzo[c][1,2,5]oxasilaborol-3(1H)-ol] | actively extruded from bacterial cells | – | – | –
C[Si]1(C)OB(O)c2cc(F)c(SC3CC(=O)NC3=O)c(F)c21 (stereo not shown) [Compound 12, 3-((5,7-Difluoro-3-hydroxy-1,1-dimethyl-1,3-dihydrobenzo[c][1,2,5]oxasilaborol-6-yl)thio)pyrrolidine-2,5-dione] | – | at least 4 -fold | – | –
C[Si]1(C)OB(O)c2cc(F)c(SCCS(=O)(=O)c3ccccc3)c(F)c21 [Compound 20, 5,7-Difluoro-1,1-dimethyl-6-((2-(phenylsulfonyl)ethyl)thio)benzo[c][1,2,5]oxasilaborol-3(1H)-ol] | actively extruded from bacterial cells | – | > 200 | 92.9
